Laboratory results reported in the supplement of paper PMC10307832.

Columns and labels:
Test in all cases: relative viability (nuclei count vs DMSO), 5 days (fraction); higher = more cells survive
[1] = compound: Nc1ncn([C@H]2C[C@H](O)[C@@H](CO)O2)c(=O)n1 [Decitabine] + Cc1cc(Nc2cc(N3CCN(C)CC3)nc(Sc3ccc(NC(=O)C4CC4)cc3)n2)n[nH]1 [Tozasertib] (partner 0.1 µM)
How it was run: (§1)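 Lung cancer cell lines were pin-tool dosed in 1536-well plates on the day after seeding, with either a lone drug or a fixed anchor-drug dose plus five library-drug doses (not always all listed) in √10 steps. Nuclei were counted on 4× images after 5 days. Relative viability is the ratio of treated-well to vehicle-well nuclei counts, with each value a median of duplicate plates.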

[2] = compound: O=C(C[C@H]1NCCC[C@@H]1O)Cn1cnc2cc(Br)c(Cl)cc2c1=O (racemic) [Halofuginone] + CS(=O)(=O)N1CCN(Cc2cc3nc(-c4cccc5[nH]ncc45)nc(N4CCOCC4)c3s2)CC1 [Pictilisib] (partner 1 µM)
How it was run: as §1

[3] = compound: O=C(C[C@H]1NCCC[C@@H]1O)Cn1cnc2cc(Br)c(Cl)cc2c1=O (racemic) [Halofuginone] + Nc1ncn([C@H]2C[C@H](O)[C@@H](CO)O2)c(=O)n1 [Decitabine] (partner 2 µM)
How it was run: as §1

[4] = compound: O=C(C[C@H]1NCCC[C@@H]1O)Cn1cnc2cc(Br)c(Cl)cc2c1=O (racemic) [Halofuginone] + O=C(CCCCCCC(=O)Nc1ccccc1)NO [Vorinostat] (partner 1 µM)
How it was run: as §1

Cell Line	relative viability ([1]; first compound 0.04 µM)	relative viability ([1]; first compound 0.1265 µM)	relative viability ([1]; first compound 0.4 µM)	relative viability ([1]; first compound 1.265 µM)	relative viability ([1]; first compound 4 µM)	relative viability ([2]; first compound 0.001 µM)	relative viability ([2]; first compound 0.003162 µM)	relative viability ([2]; first compound 0.01 µM)	relative viability ([2]; first compound 0.03162 µM)	relative viability ([2]; first compound 0.1 µM)	relative viability ([3]; first compound 0.001 µM)	relative viability ([3]; first compound 0.003162 µM)	relative viability ([3]; first compound 0.01 µM)	relative viability ([3]; first compound 0.03162 µM)	relative viability ([3]; first compound 0.1 µM)	relative viability ([4]; first compound 0.001 µM)	relative viability ([4]; first compound 0.003162 µM)	relative viability ([4]; first compound 0.01 µM)	relative viability ([4]; first compound 0.03162 µM)	relative viability ([4]; first compound 0.1 µM)
NCI-H1651	0.521	0.718	0.6	0.378	0.371	0.677	0.586	0.548	0.522	0.243	0.592	0.563	0.601	0.591	0.58	0.528	0.528	0.572	0.548	0.59
NCI-H1666	0.514	0.577	0.615	0.502	0.517	0.483	0.357	0.443	0.406	0.323	0.769	0.601	0.724	0.795	0.794	1.14	0.966	0.999	0.984	0.955
NCI-H1734	0.265	0.246	0.221	0.206	0.192	0.46	0.492	0.403	0.449	0.327	0.542	0.508	0.522	0.491	0.293	0.891	0.9	0.838	0.753	0.607
NCI-H1755	0.525	0.538	0.473	0.372	0.357	0.478	0.468	0.445	0.493	0.287	0.693	0.699	0.726	0.746	0.748	0.758	0.838	0.722	0.768	0.669
NCI-H1793	0.288	0.335	0.247	0.226	0.207	0.329	0.216	0.33	0.381	0.228	0.511	0.6	0.505	0.5	0.21	0.898	0.672	0.664	0.846	0.497
NCI-H1915	0.274	0.224	0.174	0.175	0.189	0.917	1.04	0.915	0.861	0.882	0.25	0.265	0.257	0.274	0.253	0.531	0.554	0.561	0.472	0.511
NCI-H1944	0.234	0.268	0.22	0.201	0.186	0.317	0.398	0.347	0.35	0.307	0.4	0.435	0.396	0.407	0.451	0.565	0.536	0.519	0.477	0.513
NCI-H1975	0.279	0.239	0.132	0.152	0.129	0.319	0.298	0.31	0.225	0.106	0.4	0.408	0.436	0.385	0.285	0.744	0.697	0.441	0.47	0.179
NCI-H1993	0.682	0.591	0.683	0.568	0.553	0.788	0.749	0.891	0.807	0.803	0.636	0.635	0.52	0.565	0.443	1.1	0.852	0.809	0.0067	0.576
NCI-H2009	0.628	0.451	0.399	0.312	0.252	1.07	0.878	0.758	0.689	0.26	0.343	0.332	0.403	0.415	0.308	0.86	0.703	0.76	0.703	0.462
NCI-H2023	0.218	0.226	0.157	0.0961	0.122	0.268	0.232	0.228	0.141	0.0681	0.234	0.232	0.213	0.182	0.0828	0.81	0.64	0.56	0.453	0.0822
NCI-H2085	0.666	0.669	0.54	0.454	0.437	0.58	0.407	0.448	0.515	0.48	0.562	0.542	0.546	0.581	0.52	0.817	0.805	0.759	0.815	0.748
NCI-H2087	0.229	0.194	0.176	0.129	0.153	0.986	1.01	0.799	1	0.831	0.3	0.356	0.308	0.27	0.228	0.72	0.713	0.773	0.723	0.484
NCI-H2126	0.648	0.606	0.425	0.451	0.399	0.562	0.486	0.533	0.485	0.427	0.586	0.612	0.58	0.52	0.588	0.903	0.762	0.784	0.74	0.562
NCI-H2170	0.447	0.472	0.347	0.298	0.217	0.311	0.313	0.313	0.32	0.26	0.479	0.47	0.453	0.489	0.457	0.853	0.831	0.799	0.825	0.802
NCI-H2347	0.415	0.486	0.493	0.358	0.347	0.759	0.636	0.445	0.699	0.374	0.595	0.676	0.567	0.65	0.659	0.769	0.561	0.55	0.611	0.395
